Laboratory results from patent US6409508B1, “Use of ozone for the treatment of dental caries” (Natural White, priority 1998, dated 2002).

Key:
Assay type in all cases: cell-based
[1] = test system: Streptococcus sobrinus; TH 21; assay: Ozone on S. sobrinus on saliva coated glass beads; settings: 10 seconds of ozone applied to glass beads
Description: (§1) The aims of these studies were to evaluate the efficiency of ozone on primary root caries and associated micro-organisms (Streptococcus sobrinus; TH 21, Streptococcus mutans; NCTC 10449). In study 1, 40 soft primary root carious lesions (PRCLs) from freshly extracted teeth were used and randomly divided into two groups to test the exposure to ozone for either 10 or 20 seconds. There was a significant (p<0.001) difference (Mean±SE) between the control samples for. either 10 seconds (log10 5.91±0.15) or 20 seconds (log10 6.18±0.21) and ozone treated samples for either 10 seconds (log10 3.57±0.37) or 20 seconds (log10 3.77±0.42). In study 2, 40 sterile saliva coated glass beads were put into bijoux bottles with 3 mls of Todd Hewitt broth for control and test groups. S. sobrinus and S. mutans were inoculated and incubated anaerobically overnight. Each glass bead was washed with 2 mls of PBS. Immediately, 10 seconds of ozone was applied to the glass beads in the test groups. Subsequently, each glass bead in the test and control groups was placed in 3 mls of Todd Hewitt Broth with six more sterile glass beads and were vortexed for 30 seconds. After decimal dilutions, 100 ml aliquots were spread on blood agar plates supplemented with 5% (V/V) horse blood and placed in an anaerobic chamber at 37° C. for two days. The number of each colony type was counted and calculated. […]

[2] = test system: micro-organisms in primary root carious lesions (PRCL); assay: Ozone effect on microflora from primary root caries ex-vivo; settings: for Mean ± SE of total cfu (Log10): after 10 seconds of ozone treatment
Description: Primary root carious lesions (PRCL) are a major clinical problem. The aim of this study was to establish if ozone could achieve effective microbial killing in PRCL. An ozone producing generator (Purezone Ltd., Ipswich, U.K.) was used in this ex-vivo study assessing the use of ozone on PRCL. In this study, soft PRCL requiring restoration were used as these are the most severe type of lesion found in humans. 20 freshly extracted teeth with PRCL requiring restoration were used. After plaque removal using a hand held standard fine nylon fibre sterile toothbrush with sterile water as a lubricant to cleanse the surface, each tooth was then isolated using sterile cotton wool rolls and dried using a dry sterile cotton wool roll. […] Each sample was weighed and immediately placed in 1 ml of Fastidious Anaerobe Broth (FAB). To each 1 ml of FAB containing a biopsy of carious or ozone treated carious dentine, sterile glass beads were added. They were vortexed for 30 seconds to facilitate the extraction of any micro-organisms from the carious dentine and disperse any aggregates. After decimal dilution with FAB, […] of these was spread on Fastidious Anaerobe Agar (LabM. Bury, Lancs., U.K.) supplemented with 5% (V/V) horse blood in an anaerobic chamber at 37° C. for four days. The mean±SE number of each colony type was counted and calculated.
The procedure of Example 2 was repeated except that ozonised water was applied to the lesion for 20 seconds.
as §1, with “After decimal dilutions, 100 ml aliquots were spread on blood agar plates supplemented with 5% (V/V) horse blood and placed in an anaerobic chamber at 37° C. for two days.” left out

[3] = test system: Streptococcus mutans; NCTC 10449; assay: Ozone on S. mutans on saliva coated glass beads; settings: 10 seconds of ozone applied to glass beads
Description: as §1

## O=[O+][O-] [Ozone, ozone]
[1]
  colony count (log10, Mean±SE): 1.09±0.36 log10
[2]; 10 seconds of ozone treatment
  percentage of micro-organisms killed: more than 99%
[2]; soft PRCL, freshly extracted teeth
  Mean ± SE of total cfu (Log10): 3.57 ± 0.37 Log10
[2]; soft PRCL, freshly extracted teeth, listed as ozone
  Mean ± SE of total cfu (Log10): 3.57±0.37 Log10
[2]; after 20 seconds of ozone (ozonised water) treatment, soft PRCL, freshly extracted teeth
  Mean ± SE of total cfu (log10): 3.77±0.42 log10
[3]
  colony count (log, Mean±SE): 1.01±0.27 log
